# From PubChem BioAssay (NCI)
# “And” between values parts separate entries of the source, which are not always exact repeats. Equal values may be shown once.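 Where inhibition never reached the appropriate level, the endpoint shown equals the highest concentration tested. Otherwise, values were interpolated linearly from a five-concentration, 48-hour dose response in 96-well plates. GI50 is the concentration that inhibits growth by half. TGI is the concentration that stops growth completely.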
# Legend:
# Assay in all cases: NCI tumour cell line growth inhibition, 48 h
# SW-620 colon = test system: SW-620 colon
# HOP-92 NSCLC = test system: HOP-92 NSCLC
# KM12 colon = test system: KM12 colon
# SK-OV-3 ovarian = test system: SK-OV-3 ovarian
# HS 578T breast = test system: HS 578T breast
# NCI-H226 lung = test system: NCI-H226 lung
# DU-145 prostate = test system: DU-145 prostate
# SK-MEL-2 melanoma = test system: SK-MEL-2 melanoma
# OVCAR-5 ovarian = test system: OVCAR-5 ovarian
# OVCAR-4 ovarian = test system: OVCAR-4 ovarian
# OVCAR-8 ovarian = test system: OVCAR-8 ovarian
# SK-MEL-28 melanoma = test system: SK-MEL-28 melanoma
# SF-268 CNS = test system: SF-268 CNS
# OVCAR-3 ovarian = test system: OVCAR-3 ovarian
# LOX IMVI melanoma = test system: LOX IMVI melanoma
# HOP-62 NSCLC = test system: HOP-62 NSCLC
# SK-MEL-5 melanoma = test system: SK-MEL-5 melanoma
# CCRF-CEM leukemia = test system: CCRF-CEM leukemia
# PC-3 prostate = test system: PC-3 prostate
# UACC-257 melanoma = test system: UACC-257 melanoma
# M14 melanoma = test system: M14 melanoma
# IGROV1 ovarian = test system: IGROV1 ovarian
# MCF7 breast = test system: MCF7 breast
# NCI-H460 lung = test system: NCI-H460 lung
# SN12C renal = test system: SN12C renal
# ACHN renal = test system: ACHN renal
# BT-549 breast = test system: BT-549 breast
# NCI-H522 lung = test system: NCI-H522 lung
# A549 NSCLC = test system: A549 NSCLC
# MALME-3M melanoma = test system: MALME-3M melanoma
# SF-539 CNS = test system: SF-539 CNS
# HL-60(TB) leukemia = test system: HL-60(TB) leukemia
# RPMI-8226 leukemia = test system: RPMI-8226 leukemia
# NCI-H23 lung = test system: NCI-H23 lung
# A498 renal = test system: A498 renal
# HCT-116 colon = test system: HCT-116 colon
# U251 CNS = test system: U251 CNS
# RXF 393 renal = test system: RXF 393 renal
# EKVX NSCLC = test system: EKVX NSCLC
# T-47D breast = test system: T-47D breast
# HT29 colon = test system: HT29 colon
# 786-0 renal = test system: 786-0 renal
# UACC-62 melanoma = test system: UACC-62 melanoma
# UO-31 renal = test system: UO-31 renal
# CAKI-1 renal = test system: CAKI-1 renal
# K-562 leukemia = test system: K-562 leukemia
# TK-10 renal = test system: TK-10 renal
# NCI/ADR-RES ovarian = test system: NCI/ADR-RES ovarian
# MOLT-4 leukemia = test system: MOLT-4 leukemia
# HCT-15 colon = test system: HCT-15 colon
# SNB-19 CNS = test system: SNB-19 CNS
# SNB-75 CNS = test system: SNB-75 CNS
# MDA-MB-231 breast = test system: MDA-MB-231 breast
# MDA-MB-435 = test system: MDA-MB-435
# SF-295 CNS = test system: SF-295 CNS
# HCC-2998 colon = test system: HCC-2998 colon
# COLO 205 colon = test system: COLO 205 colon
smiles,measurement,setting,value
CCC[C@H](C)C[C@H](C)C[C@H](C)/C=C(\C)[C@@H](O)[C@@H](C)C(=O)CC,TGI,SW-620 colon,43 µM
same,TGI,HOP-92 NSCLC,38.3 µM
same,TGI,KM12 colon,42 µM
same,TGI,SK-OV-3 ovarian,> 100 µM
same,TGI,HS 578T breast,51.8 µM
same,TGI,NCI-H226 lung,42.6 µM
same,TGI,DU-145 prostate,43.4 µM
same,TGI,SK-MEL-2 melanoma,44.7 µM
same,TGI,OVCAR-5 ovarian,34.1 µM
same,TGI,OVCAR-4 ovarian,36.8 µM
same,TGI,OVCAR-8 ovarian,39.4 µM
same,TGI,SK-MEL-28 melanoma,33.4 µM
same,TGI,SF-268 CNS,39.6 µM
same,TGI,OVCAR-3 ovarian,34.4 µM
same,TGI,LOX IMVI melanoma,37.8 µM
same,TGI,HOP-62 NSCLC,35.2 µM
same,TGI,SK-MEL-5 melanoma,36.1 µM
same,TGI,CCRF-CEM leukemia,52.8 µM
same,TGI,PC-3 prostate,37.2 µM
same,TGI,UACC-257 melanoma,38.9 µM
same,TGI,M14 melanoma,35.7 µM
same,TGI,IGROV1 ovarian,36.2 µM
same,TGI,MCF7 breast,42.7 µM
same,TGI,NCI-H460 lung,53.4 µM
same,TGI,SN12C renal,35.5 µM
same,TGI,ACHN renal,39 µM
same,TGI,BT-549 breast,44.1 µM
same,TGI,NCI-H522 lung,36.4 µM
same,TGI,A549 NSCLC,39.4 µM
same,TGI,MALME-3M melanoma,33.6 µM
same,TGI,SF-539 CNS,37 µM
same,TGI,HL-60(TB) leukemia,36.2 µM
same,TGI,RPMI-8226 leukemia,49 µM
same,TGI,NCI-H23 lung,33.3 µM
same,TGI,A498 renal,42.6 µM
same,TGI,HCT-116 colon,33.9 µM
same,TGI,U251 CNS,44.7 µM
same,TGI,RXF 393 renal,40 µM
same,TGI,EKVX NSCLC,34.7 µM
same,TGI,T-47D breast,50.8 µM
same,TGI,HT29 colon,37 µM
same,TGI,786-0 renal,35.7 µM
same,TGI,UACC-62 melanoma,33.8 µM
same,TGI,UO-31 renal,41.7 µM
same,TGI,CAKI-1 renal,37.4 µM
same,TGI,K-562 leukemia,38 µM
same,TGI,TK-10 renal,38.3 µM
same,TGI,NCI/ADR-RES ovarian,30.9 µM
same,TGI,MOLT-4 leukemia,43.3 µM
same,TGI,HCT-15 colon,41.7 µM
same,TGI,SNB-19 CNS,36.1 µM
same,TGI,SNB-75 CNS,> 100 µM
same,TGI,MDA-MB-231 breast,44.6 µM
same,TGI,MDA-MB-435,35.7 µM
same,TGI,SF-295 CNS,37.9 µM
same,TGI,HCC-2998 colon,31.2 µM
OC(c1cc2cc(Cl)c(Cl)cc2c2cc(C(F)(F)F)ccc12)C1CCCCN1 (centres undefined),GI50,HS 578T breast,1.54 µM
same,TGI,HS 578T breast,3.27 µM
same,GI50,DU-145 prostate,1.94 µM
same,TGI,DU-145 prostate,3.36 µM
same,GI50,OVCAR-5 ovarian,1.61 µM
same,TGI,OVCAR-5 ovarian,3.1 µM
same,GI50,OVCAR-8 ovarian,1.67 µM
same,TGI,OVCAR-8 ovarian,3.21 µM
same,GI50,A549 NSCLC,1.68 µM
same,TGI,A549 NSCLC,3.18 µM
same,GI50,HL-60(TB) leukemia,2.28 µM
same,TGI,HL-60(TB) leukemia,4.07 µM
same,GI50,A498 renal,1.36 µM
same,TGI,A498 renal,2.69 µM
same,GI50,U251 CNS,1.72 µM
same,TGI,U251 CNS,3.21 µM
same,GI50,UO-31 renal,1.52 µM
same,TGI,UO-31 renal,3.16 µM
same,GI50,CAKI-1 renal,2 µM
same,TGI,CAKI-1 renal,4.32 µM
same,GI50,MOLT-4 leukemia,1.59 µM
same,TGI,MOLT-4 leukemia,3.32 µM
CC(=O)c1c(-c2cccc3ccccc23)c(C#N)c(=S)n(C2OC(CO)C(O)C(O)C2O)c1-c1ccccc1 (centres undefined),TGI,HOP-92 NSCLC,> 100 µM
same,TGI,EKVX NSCLC,> 100 µM
same,GI50,UO-31 renal,5.09 µM and 1.59 µM
same,TGI,UO-31 renal,23.8 µM and 3.54 µM
COC1O[C@@H]2C[C@H]3C(C)(C)CCC[C@]3(C)C3=CCCC1[C@@]32C (some centres undefined),GI50,SW-620 colon,> 100 µM
same,TGI,SW-620 colon,> 100 µM
same,GI50,HOP-92 NSCLC,> 100 µM
same,TGI,HOP-92 NSCLC,> 100 µM
same,GI50,KM12 colon,> 100 µM
same,TGI,KM12 colon,> 100 µM
same,GI50,HS 578T breast,> 100 µM
same,TGI,HS 578T breast,> 100 µM
same,GI50,NCI-H226 lung,> 100 µM
same,TGI,NCI-H226 lung,> 100 µM
same,GI50,DU-145 prostate,> 100 µM
same,TGI,DU-145 prostate,> 100 µM
same,GI50,OVCAR-5 ovarian,> 100 µM
same,TGI,OVCAR-5 ovarian,> 100 µM
same,GI50,OVCAR-4 ovarian,> 100 µM
same,TGI,OVCAR-4 ovarian,> 100 µM
same,GI50,OVCAR-8 ovarian,> 100 µM
same,TGI,OVCAR-8 ovarian,> 100 µM
same,GI50,SK-MEL-28 melanoma,> 100 µM
same,TGI,SK-MEL-28 melanoma,> 100 µM
same,GI50,SF-268 CNS,> 100 µM
same,TGI,SF-268 CNS,> 100 µM
same,GI50,OVCAR-3 ovarian,> 100 µM
same,TGI,OVCAR-3 ovarian,> 100 µM
same,GI50,LOX IMVI melanoma,> 100 µM
same,TGI,LOX IMVI melanoma,> 100 µM
same,GI50,HOP-62 NSCLC,> 100 µM
same,TGI,HOP-62 NSCLC,> 100 µM
same,GI50,SK-MEL-5 melanoma,> 100 µM
same,TGI,SK-MEL-5 melanoma,> 100 µM
same,GI50,CCRF-CEM leukemia,> 100 µM
same,TGI,CCRF-CEM leukemia,> 100 µM
same,GI50,PC-3 prostate,0.515 µM
same,TGI,PC-3 prostate,> 100 µM
same,GI50,UACC-257 melanoma,> 100 µM
same,TGI,UACC-257 melanoma,> 100 µM
same,GI50,M14 melanoma,> 100 µM
same,TGI,M14 melanoma,> 100 µM
same,GI50,IGROV1 ovarian,> 100 µM
same,TGI,IGROV1 ovarian,> 100 µM
same,GI50,MCF7 breast,> 100 µM
same,TGI,MCF7 breast,> 100 µM
same,GI50,COLO 205 colon,> 100 µM
same,TGI,COLO 205 colon,> 100 µM
same,GI50,NCI-H460 lung,> 100 µM
same,TGI,NCI-H460 lung,> 100 µM
same,GI50,SN12C renal,> 100 µM
same,TGI,SN12C renal,> 100 µM
same,GI50,ACHN renal,> 100 µM
same,TGI,ACHN renal,> 100 µM
same,GI50,BT-549 breast,> 100 µM
same,TGI,BT-549 breast,> 100 µM
same,GI50,NCI-H522 lung,> 100 µM
same,TGI,NCI-H522 lung,> 100 µM
same,GI50,A549 NSCLC,> 100 µM
same,TGI,A549 NSCLC,> 100 µM
same,GI50,MALME-3M melanoma,> 100 µM
same,TGI,MALME-3M melanoma,> 100 µM
same,GI50,SF-539 CNS,> 100 µM
same,TGI,SF-539 CNS,> 100 µM
same,GI50,RPMI-8226 leukemia,> 100 µM
same,TGI,RPMI-8226 leukemia,> 100 µM
same,GI50,NCI-H23 lung,> 100 µM
same,TGI,NCI-H23 lung,> 100 µM
same,GI50,A498 renal,> 100 µM
same,TGI,A498 renal,> 100 µM
same,GI50,HCT-116 colon,> 100 µM
same,TGI,HCT-116 colon,> 100 µM
same,GI50,U251 CNS,> 100 µM
same,TGI,U251 CNS,> 100 µM
same,GI50,RXF 393 renal,> 100 µM
same,TGI,RXF 393 renal,> 100 µM
same,GI50,EKVX NSCLC,> 100 µM
same,TGI,EKVX NSCLC,> 100 µM
same,GI50,T-47D breast,> 100 µM
same,TGI,T-47D breast,> 100 µM
same,GI50,HT29 colon,> 100 µM
same,TGI,HT29 colon,> 100 µM
same,GI50,786-0 renal,> 100 µM
same,TGI,786-0 renal,> 100 µM
same,GI50,UACC-62 melanoma,> 100 µM
same,TGI,UACC-62 melanoma,> 100 µM
same,GI50,UO-31 renal,> 100 µM
same,TGI,UO-31 renal,> 100 µM
same,GI50,K-562 leukemia,> 100 µM
same,TGI,K-562 leukemia,> 100 µM
same,GI50,TK-10 renal,> 100 µM
same,TGI,TK-10 renal,> 100 µM
same,GI50,MOLT-4 leukemia,> 100 µM
same,TGI,MOLT-4 leukemia,> 100 µM
same,GI50,HCT-15 colon,> 100 µM
same,TGI,HCT-15 colon,> 100 µM
same,GI50,SNB-19 CNS,> 100 µM
same,TGI,SNB-19 CNS,> 100 µM
same,GI50,SNB-75 CNS,> 100 µM
same,TGI,SNB-75 CNS,> 100 µM
same,GI50,MDA-MB-231 breast,> 100 µM
same,TGI,MDA-MB-231 breast,> 100 µM
same,GI50,MDA-MB-435,> 100 µM
same,TGI,MDA-MB-435,> 100 µM
same,GI50,SF-295 CNS,> 100 µM
same,TGI,SF-295 CNS,> 100 µM
